Measured values taken from the PolyMetriX glass transition set.
± gives the standard deviation of the reports.

Row | SMILES | glass transition temperature
1 | *CC(*)OC(=O)C(F)(F)C(F)(F)C(F)(F)F (repeat unit) | 27.00 °C
2 | *CCN(CCOC(=O)c1ccc(C(=O)O*)c(OCCC)c1)c1ccc(/N=N/c2ccc(-c3nc4ccccc4o3)cc2)cc1 (repeat unit) | 117.00 °C
3 | *Oc1ccc(P(=O)(c2ccccc2)c2ccc(Oc3ccc(C(c4ccc(*)cc4)(C(F)(F)F)C(F)(F)F)cc3)cc2)cc1 (repeat unit) | 210.50 °C
4 | *c1cccc(Oc2ccc(P(=O)(c3ccccc3)c3ccccc3)c(Oc3cccc(N4C(=O)c5ccc(Oc6ccc7c(c6)C(=O)N(*)C7=O)cc5C4=O)c3)c2)c1 (repeat unit) | 212.00 °C
5 | *c1ccc2c(c1)C(=O)N(c1ccc(C(c3ccc(N4C(=O)c5ccc(C(*)(C(F)(F)F)C(F)(F)F)cc5C4=O)cc3)(C(F)(F)F)C(F)(F)F)cc1)C2=O (repeat unit) | 315.10 °C
6 | *CC(*)c1ccc(C(=O)N2CCCCC2)cc1 (repeat unit) | 114.00 °C
7 | *Nc1cc(NC(=O)c2cc(OCCCS(=O)(=O)c3ccc(/N=N/c4ccc(N(C)C)cc4)cc3)cc(C(*)=O)c2)cc(C(=O)OCCCN(C)c2ccc(/N=N/c3ccc(S(C)(=O)=O)cc3)cc2)c1 (repeat unit) | 166.00 °C
8 | *c1c(C)cc(-c2cc(C)c(N3C(=O)c4ccc(Oc5ccc(C(C)(C)c6ccc(Oc7ccc8c(c7)C(=O)N(*)C8=O)cc6)cc5)cc4C3=O)c(C)c2)cc1C (repeat unit) | 280.00 °C
9 | *CC(*)C(=O)c1ccc(C(C)C)cc1 (repeat unit) | 62.50 °C
10 | *C/C=C/C[Si](*)(C)c1ccccc1 (repeat unit) | -1.00 °C
11 | *CC(*)(Cl)C(=O)OC (repeat unit) | 125.00 °C
12 | *c1cccc(N2C(=O)c3ccc(Oc4ccc5c(c4)C(=O)N(*)C5=O)cc3C2=O)c1 (repeat unit) | 270.50 ± 13 °C
13 | *c1ccc2c(c1)C(=O)N(c1ccc(C(=O)Nc3ccc(Oc4ccc(C(c5ccc(Oc6ccc(NC(=O)c7ccc(N8C(=O)c9ccc(C(*)(C(F)(F)F)C(F)(F)F)cc9C8=O)cc7)cc6)cc5)(C(F)(F)F)C(F)(F)F)cc4)cc3)cc1)C2=O (repeat unit) | 293.00 °C
14 | *Oc1ccc(-c2ccc(Oc3ccc(Oc4cccc(Oc5ccc(*)cc5)c4C)cc3)c3ccccc23)c2ccccc12 (repeat unit) | 156.00 °C
15 | *Oc1ccc(C(c2ccc(OC3(F)C(*)(F)C(F)(F)C3(F)F)cc2)(C(F)(F)F)C(F)(F)F)cc1 (repeat unit) | 122.50 °C
16 | *CC(*)C(=O)OCCCOc1ccc(C(=O)OCCCC(F)(F)C(F)(F)C(F)(F)C(F)(F)C(F)(F)C(F)(F)C(F)(F)C(F)(F)F)cc1 (repeat unit) | 48.00 °C
17 | *CC(*)C(=O)c1ccc(Br)cc1 (repeat unit) | 101.50 °C
18 | *Oc1ccc(S(=O)(=O)c2ccc(Oc3ccc(C(C)(c4ccc(*)cc4)c4ccc(O)cc4)cc3)cc2)cc1 (repeat unit) | 228.00 °C
19 | *Oc1cccc(Oc2ccc(C(=O)c3ccc(*)cc3)cc2)c1 (repeat unit) | 125.00 °C
20 | *CC(F)(F)CC(*)(C(F)(F)F)C(F)(F)F (repeat unit) | 132.00 °C
21 | *OC1C(COC(C)=O)OC(*)C(OC(C)=O)C1OC(C)=O (repeat unit) | 178.00 °C

Row | SMILES | glass transition temperature
22 | *C(=O)c1ccc2c(c1)C(=O)N(c1ccc(Oc3ccc(C(=O)c4cccc(C(=O)c5ccc(Oc6ccc(N7C(=O)c8ccc(*)cc8C7=O)cc6)cc5)c4)cc3)cc1)C2=O (repeat unit) | 222.00 °C
23 | *Oc1ccc(C2(c3ccc(OC(=O)c4ccc(C(*)=O)cc4)cc3)CCC(C(C)(C)C)CC2)cc1 (repeat unit) | 210.00 °C
24 | *OC(=O)C(CCSC)NC(=O)CCCCCCCCC(=O)NC(CCSC)C(=O)OC1COC2C(*)COC12 (repeat unit) | 61.00 °C
25 | *c1cc(Oc2c(C)cc(-c3cc(C)c(Oc4cc(N5C(=O)c6ccc(-c7ccc8c(c7)C(=O)N(*)C8=O)cc6C5=O)cc(C(F)(F)F)c4)c(C)c3)cc2C)cc(C(F)(F)F)c1 (repeat unit) | 281.10 °C
26 | *c1ccc(CC(=O)Nc2cccc(NC(=O)Cc3ccc(-c4sc(*)c(-c5ccccc5)c4-c4ccccc4)cc3)c2)cc1 (repeat unit) | 228.00 °C
27 | *CCN(Cc1ccccc1)C(=O)S* (repeat unit) | 32.00 °C
28 | *CC(OC(=O)C(=O)OCC)C(COC(=O)O*)OC(=O)C(=O)OCC (repeat unit) | 53.80 °C
29 | *CCCCCCCCNC(=O)Cc1ccc(CC(=O)N*)cc1 (repeat unit) | 110.00 °C
30 | *C(=O)Nc1ccc(Oc2ccc(C(c3ccc(Oc4ccc(NC(=O)c5ccc6c(c5)C(=O)N(c5ccc(Oc7cccc8c(Oc9ccc(N%10C(=O)c%11ccc(*)cc%11C%10=O)cc9)cccc78)cc5)C6=O)cc4)cc3)(C(F)(F)F)C(F)(F)F)cc2)cc1 (repeat unit) | 231.00 °C
31 | *CCCCC(=O)NCc1ccc(CNC(=O)CCCCS*)cc1 (repeat unit) | 70.00 °C
32 | *CC(CCCCCCOc1ccc(/N=N/c2ccc(C#N)cc2)cc1)COC(=O)CCCCCCCCCCCCC(=O)O* (repeat unit) | 21.50 °C
33 | *Nc1cccc2c1C(=O)c1cccc(N[Se]*)c1C2=O (repeat unit) | 52.00 °C
34 | *Sc1cc(C)c(*)cc1C (repeat unit) | 298.00 °C
35 | *Oc1ccc(C2(c3ccc(Oc4ccc(C(=O)c5c(C(=O)c6ccc(*)cc6)c(-c6ccccc6)c(-c6ccc7ccccc7c6)c(-c6ccc7ccccc7c6)c5-c5ccccc5)cc4)cc3)c3ccccc3-c3ccccc32)cc1 (repeat unit) | 310.00 °C
36 | *CCCCOc1ccc(OCCCCc2nnc(-c3ccc(-c4nnc(*)o4)cc3)o2)c(C)c1 (repeat unit) | 129.00 °C
37 | *CC(*)(C)C(=O)OCC(CC)CCCC (repeat unit) | -10.00 °C
38 | *CCN(CCOC(=O)Nc1cccc(NC(=O)O*)c1C)c1ccc(/C=C/c2ccc([N+](=O)[O-])cc2)cc1 (repeat unit) | 123.00 °C
39 | *Oc1ccc(C(C)(C)c2ccc(C(C)(C)c3ccc(OC(*)=O)cc3)cc2)cc1 (repeat unit) | 154.00 °C
40 | *CC(*)(CC(=O)OCCOCCOCCOCCOCCOCCOCCOC)C(=O)OCCOCCOCCOCCOCCOCCOCCOC (repeat unit) | -40.50 °C
41 | *CC(c1ccccc1)C1C(=O)N(c2ccc(Oc3ccccc3)cc2)C(=O)C1* (repeat unit) | 194.00 °C
42 | *C(=O)Oc1ccc(OC(=O)c2ccc3c(c2)C(=O)N(c2ccc(Oc4ccc(Oc5ccc(N6C(=O)c7ccc(*)cc7C6=O)cc5)cc4)cc2)C3=O)cc1 (repeat unit) | 230.00 °C

Continued, values first:

Row | glass transition temperature | SMILES
43 | 206.00 °C | *Nc1cc([N+](=O)[O-])c(NC(=O)CCCCC(*)=O)cc1/C=C/c1ccc(N(C)C)cc1 (repeat unit)
44 | 70.00 °C | *CC(=O)OC(=O)COc1ccc(O*)cc1 (repeat unit)
45 | 19.00 °C | *CCCCCCOC(=O)CCCCCCCCCCCCCCCCCCC(=O)OCCCCCCN1C(=O)c2ccc(S(=O)(=O)c3ccc4c(c3)C(=O)N(*)C4=O)cc2C1=O (repeat unit)
46 | 270.00 °C | *c1ccc(Oc2ccc(C(c3ccc(Oc4ccc(N5C(=O)c6ccc7c8c(ccc(c68)C5=O)C(=O)N(*)C7=O)cc4)c(S(=O)(=O)O)c3)(C(F)(F)F)C(F)(F)F)cc2S(=O)(=O)O)cc1 (repeat unit)
47 | 270.00 °C | *Nc1ccc(Cc2ccc(NC(=O)c3cc(C(*)=O)cc(S(=O)(=O)c4ccccc4)c3)cc2)cc1 (repeat unit)
48 | -35.00 °C | *CCOCCOCCOC(=O)CCSCCC(=O)O* (repeat unit)
49 | 38.00 °C | *CCC[Si](*)(c1ccc(C)cc1)c1ccc(C)cc1 (repeat unit)
50 | 117.00 °C | *SCC(=O)N/N=C/c1ccc(OCCCCCCCCCCOc2ccc(/C=N/NC(=O)CSc3nnc(*)s3)cc2)cc1 (repeat unit)
51 | 135.00 °C | *Nc1c(-c2ccccc2)cc(-c2ccc(-c3cc(-c4ccccc4)c(NC(=O)c4ccc(C(*)=O)cc4)c(-c4ccccc4)c3)cc2)cc1-c1ccccc1 (repeat unit)
52 | 217.50 °C | *c1ccc(Oc2ccc(C(c3ccc(Oc4ccc(N5C(=O)c6ccc(Oc7ccc(Sc8ccc(Oc9ccc%10c(c9)C(=O)N(*)C%10=O)cc8)cc7)cc6C5=O)cc4)cc3)(C(F)(F)F)C(F)(F)F)cc2)cc1 (repeat unit)
53 | 45.00 °C | *CC(*)(C)C(=O)OCCCCOc1ccc(C(=O)Oc2ccc(OC)cc2)cc1 (repeat unit)
54 | 66.00 °C | *CCCNC(=O)C(NC(=O)C(Cc1ccccc1)NC(=O)CCCCCCCCC(=O)NC(Cc1ccccc1)C(=O)NC(C(=O)NCCCOCCOCCO*)C(C)C)C(C)C (repeat unit)
55 | 194.00 °C | *CC(*)(C)C(=O)OC12CC3CC(C)(CC(C)(C3)C1)C2 (repeat unit)
56 | -78.00 °C | *O[Si](*)(C)CCCCCCCCCCC(F)(F)C(F)(F)C(F)(F)C(F)(F)C(F)(F)C(F)(F)C(F)(F)C(F)(F)F (repeat unit)
57 | 201.00 °C | *c1ccc(Oc2ccc(Sc3ccc(Oc4ccc(N5C(=O)c6ccc(Oc7ccc(Oc8ccc9c(c8)C(=O)N(*)C9=O)cc7)cc6C5=O)cc4)cc3)cc2)cc1 (repeat unit)
58 | 226.00 °C | *c1ccc(Oc2ccc(-c3ccc(Oc4ccc(N5C(=O)c6ccc(Oc7ccc(C8(c9ccc(Oc%10ccc%11c(c%10)C(=O)N(*)C%11=O)cc9)CCC(c9ccccc9)CC8)cc7)cc6C5=O)cc4)cc3C)c(C)c2)cc1 (repeat unit)
59 | 205.00 ± 3 °C | *c1cccc(Oc2cccc(Oc3cccc(N4C(=O)c5ccc(-c6ccc7c(c6)C(=O)N(*)C7=O)cc5C4=O)c3)c2)c1 (repeat unit)
60 | 111.00 °C | *O[Si](*)(C)CCc1cc(C(=O)Oc2ccc(OC)cc2)ccc1C(=O)Oc1ccc(OC)cc1 (repeat unit)
61 | 238.00 °C | *Nc1cccc(NC(=O)c2ccc(C(*)=O)cc2)c1 (repeat unit)
62 | 47.00 °C | */C=C/C1CC(*)C(C#N)([Si](C)(C)O[Si](C)(C)O[Si](C)(C)C)C1 (repeat unit)
